Laboratory results as given in US20170355705A1 (GlaxoSmithKline Intellectual Property (No.2) Limited, priority 2014, published 2017).

Target: T1, SIRT1 (Homo sapiens, UniProt Q96EB6)
T1 sequence (Q96EB6 1-747): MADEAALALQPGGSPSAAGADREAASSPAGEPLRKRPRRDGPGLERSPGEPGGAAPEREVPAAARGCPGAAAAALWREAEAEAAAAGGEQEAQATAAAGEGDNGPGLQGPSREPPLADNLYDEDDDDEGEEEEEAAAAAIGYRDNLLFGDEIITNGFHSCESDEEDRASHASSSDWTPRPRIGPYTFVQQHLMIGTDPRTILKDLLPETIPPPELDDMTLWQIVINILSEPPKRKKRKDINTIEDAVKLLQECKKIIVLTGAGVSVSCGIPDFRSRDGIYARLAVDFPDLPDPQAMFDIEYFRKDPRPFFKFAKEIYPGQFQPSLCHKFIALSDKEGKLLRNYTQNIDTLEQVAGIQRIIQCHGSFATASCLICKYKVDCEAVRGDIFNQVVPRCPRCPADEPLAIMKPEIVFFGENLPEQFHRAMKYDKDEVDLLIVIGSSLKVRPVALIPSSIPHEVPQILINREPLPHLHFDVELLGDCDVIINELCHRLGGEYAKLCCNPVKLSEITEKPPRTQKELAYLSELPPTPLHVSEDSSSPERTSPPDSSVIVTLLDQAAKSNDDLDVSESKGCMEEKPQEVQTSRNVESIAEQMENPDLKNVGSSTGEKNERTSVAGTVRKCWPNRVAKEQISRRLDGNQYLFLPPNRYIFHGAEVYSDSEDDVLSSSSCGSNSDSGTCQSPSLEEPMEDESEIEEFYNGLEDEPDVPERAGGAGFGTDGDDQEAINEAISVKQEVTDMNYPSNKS
Assay: Trp mass spectrometry assay of SIRT1 activity (EC1.5, percent maximum activation)
Assay type: biochemical
Details: Trp mass spectrometry assay; 0.5 μM peptide substrate, 120 μM βNAD+, 10 nM SIRT1, 25 minutes at 25° C.
Method in brief: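 MS readout: O-acetyl-ADP-ribose (or deacetylated peptide) formed by His-tagged SIRT1 (BL21(DE3)-expressed) on 5TMR-Trp p53-based peptide, 25 min, formic acid stop. EC1.5 = concentration raising activity 50% over no-compound control; % max activation vs control = 100%.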

Row | TRP Activity (EC1.5, concentration of test compound that results in 150% activation of SIRT1) | TRP MAX RESP (percent maximum fold activation) | Compound
1 | A (EC1.5<1 μM) | A (Fold activation ≧150%) | CC(C)(CO)COc1cncc(NC(=O)N2c3nc(-c4cccc(C(F)(F)F)c4)ccc3N3CC[C@H]2C3)n1 [Example 304, (4S)-N-(6-(3-hydroxy-2,2-dimethylpropoxy)pyrazin-2-yl)-7-(3-(trifluoromethyl)phenyl)-3,4-dihydro-1,4-methanopyrido[2,3-b][1,4]diazepine-5(2H)-carboxamide]
2 |  | A (Fold activation ≧150%) | O=C(Nc1cncc(OCCCO)n1)N1c2nc(-c3cccc(C(F)(F)F)c3)ccc2N2CC[C@H]1C2 [Example 319]
3 | B (EC1.5 1-25 μM) | A (Fold activation ≧150%) | CC(C)(CO)COc1nccc(NC(=O)N2c3nc(-c4cccc(C(F)(F)F)c4)ccc3N3CC[C@H]2C3)n1 [Example 321, (4S)-N-(2-(3-hydroxy-2,2-dimethylpropoxy)pyrimidin-4-yl)-7-(3-(trifluoromethyl)phenyl)-3,4-dihydro-1,4-methanopyrido[2,3-b][1,4]diazepine-5(2H)-carboxamide]
4 |  | A (Fold activation ≧150%) | Cc1nn(C)cc1-c1ccnc(NC(=O)N2c3nc(-c4ccnc(C(F)(F)F)c4)ccc3N3CC[C@H]2C3)c1 [Example 324]
5 | A (EC1.5<1 μM) | A (Fold activation ≧150%) | Cc1cc(-c2ccc3c(n2)N(C(=O)Nc2cc(-c4coc(C)n4)ccn2)[C@H]2CCN3C2)ccn1.Cl [Example 334, (4S)-N-(4-(2-methyloxazol-4-yl)pyridin-2-yl)-7-(2-methylpyridin-4-yl)-3,4-dihydro-1,4-methanopyrido[2,3-b][1,4]diazepine-5(2H)-carboxamide]
6 |  | A (Fold activation ≧150%) | Cc1cc(-c2ccc3c(n2)N(C(=O)Nc2cc(-n4ccnn4)ccn2)[C@H]2CCN3C2)ccn1 [Example 341]
7 |  | A (Fold activation ≧150%) | Cc1cc(-c2ccc3c(n2)N(C(=O)Nc2nccc(-c4cnc(C)o4)n2)[C@H]2CCN3C2)ccn1 [Example 353]
8 |  | A (Fold activation ≧150%) | Cc1cc(-c2ccc3c(n2)N(C(=O)Nc2nccc(-c4cnco4)n2)[C@H]2CCN3C2)ccn1 [Example 355]

Continued, molecule first:

Row | Compound | TRP Activity (EC1.5, concentration of test compound that results in 150% activation of SIRT1) | TRP MAX RESP (percent maximum fold activation)
9 | Cc1cc(-c2ccc3c(n2)N(C(=O)Nc2cnccn2)[C@H]2CCN3C2)cc(C(F)(F)F)n1 [Example 223, (4S)-7-(2-methyl-6-(trifluoromethyl)pyridin-4-yl)-N-(pyrazin-2-yl)-3,4-dihydro-1,4-methanopyrido[2,3-b][1,4]diazepine-5(2H)-carboxamide] | A (EC1.5<1 μM) | A (Fold activation ≧150%)
10 | O=C(Nc1cccnc1)N1c2nc(-c3ccc(C(F)(F)F)nc3)ccc2N2CC[C@H]1C2 [Example 224, (4S)-N-(pyridin-3-yl)-7-(6-(trifluoromethyl)pyridin-3-yl)-3,4-dihydro-1,4-methanopyrido[2,3-b][1,4]diazepine-5(2H)-carboxamide] | B (EC1.5 1-25 μM) | A (Fold activation ≧150%)
11 | CCn1cc(-c2ccc3c(n2)N(C(=O)Nc2cnccn2)[C@H]2CCN3C2)cn1 [Example 225, (4S)-7-(1-ethyl-1H-pyrazol-4-yl)-N-(pyrazin-2-yl)-3,4-dihydro-1,4-methanopyrido[2,3-b][1,4]diazepine-5(2H)-carboxamide] | B (EC1.5 1-25 μM) | A (Fold activation ≧150%)
12 | O=C(Nc1cnccn1)N1c2nc(-c3ccc(OC(F)F)nc3)ccc2N2CC[C@H]1C2 [Example 226, (4S)-7-(6-(difluoromethoxy)pyridin-3-yl)-N-(pyrazin-2-yl)-3,4-dihydro-1,4-methanopyrido[2,3-b][1,4]diazepine-5(2H)-carboxamide] | B (EC1.5 1-25 μM) | A (Fold activation ≧150%)
13 | Cc1ccc(-c2ccc3c(n2)N(C(=O)Nc2ccnc(O[C@H]4CCOC4)n2)[C@H]2CCN3C2)cn1 [Example 227, (4S)-7-(6-methylpyridin-3-yl)-N-(2-(((S)-tetrahydrofuran-3-yl)oxy)pyrimidin-4-yl)-3,4-dihydro-1,4-methanopyrido[2,3-b][1,4]diazepine-5(2H)-carboxamide] | B (EC1.5 1-25 μM) | A (Fold activation ≧150%)
14 | Cc1cc(-c2ccc3c(n2)N(C(=O)N2CCO[C@H](C)C2)[C@H]2CCN3C2)ccn1.Cl [Example 232, ((R)-2-methylmorpholino)((4S)-7-(2-methylpyridin-4-yl)-3,4-dihydro-1,4-methanopyrido[2,3-b][1,4]diazepin-5(2H)-yl)methanone hydrochloride] | C (EC1.5>25 μM) | B (Fold Activation <150%)
15 | Cn1ccc(-c2ccc3c(n2)N(C(=O)Nc2cccnc2)[C@H]2CCN3C2)cc1=O [Example 233, (4S)-7-(1-methyl-2-oxo-1,2-dihydropyridin-4-yl)-N-(pyridin-3-yl)-3,4-dihydro-1,4-methanopyrido[2,3-b][1,4]diazepine-5(2H)-carboxamide] | B (EC1.5 1-25 μM) | A (Fold activation ≧150%)
16 | Cc1cc(-c2ccc3c(n2)N(C(=O)N2CCO[C@@H](C)C2)[C@H]2CCN3C2)ccn1.Cl [Example 234, ((S)-2-methylmorpholino)((4S)-7-(2-methylpyridin-4-yl)-3,4-dihydro-1,4-methanopyrido[2,3-b][1,4]diazepin-5(2H)-yl)methanone hydrochloride] | C (EC1.5>25 μM) | B (Fold Activation <150%)
17 | Cc1cc(NC(=O)N2c3nc(-c4ccnc(C)c4)ccc3N3CC[C@H]2C3)ccn1 [Example 235, (4S)-N-7-bis(2-methylpyridin-4-yl)-3,4-dihydro-1,4-methanopyrido[2,3-b][1,4]diazepine-5(2H)-carboxamide] | B (EC1.5 1-25 μM) | A (Fold activation ≧150%)
18 | Cc1cc(C)c(-c2ccc3c(n2)N(C(=O)Nc2cccnc2)[C@H]2CCN3C2)cn1 [Example 236, (4S)-7-(4,6-dimethylpyridin-3-yl)-N-(pyridin-3-yl)-3,4-dihydro-1,4-methano pyrido[2,3-b][1,4]diazepine-5(2H)-carboxamide] | B (EC1.5 1-25 μM) | A (Fold activation ≧150%)
19 | Cc1ccc(-c2ccc3c(n2)N(C(=O)NCC(C)(C)C)[C@H]2CCN3C2)cn1 [Example 237, (4S)-7-(6-methylpyridin-3-yl)-N-neopentyl-3,4-dihydro-1,4-methanopyrido[2,3-b][1,4]diazepine-5(2H)-carboxamide] | C (EC1.5>25 μM) | B (Fold Activation <150%)
20 | Cc1ccc(-c2ccc3c(n2)N(C(=O)Nc2cncc(C)n2)[C@H]2CCN3C2)cn1 [Example 238, (4S)-N-(6-methylpyrazin-2-yl)-7-(6-methylpyridin-3-yl)-3,4-dihydro-1,4-methanopyrido[2,3-b][1,4]diazepine-5(2H)-carboxamide] | B (EC1.5 1-25 μM) | A (Fold activation ≧150%)
21 | N#Cc1ccc(-c2ccc3c(n2)N(C(=O)Nc2cccnc2)[C@H]2CCN3C2)cn1 [Example 245] |  | A (Fold activation ≧150%)
22 | CC(C)n1cc(-c2ccc3c(n2)N(C(=O)Nc2cnccn2)[C@H]2CCN3C2)cn1 [Example 252] |  | A (Fold activation ≧150%)
23 | Cc1cc(-c2ccc3c(n2)N(C(=O)Nc2nccc(C)n2)[C@H]2CCN3C2)ccn1 [Example 263] |  | A (Fold activation ≧150%)
24 | Cn1ccc(-c2ccc3c(n2)N(C(=O)Nc2cnccn2)[C@H]2CCN3C2)cc1=O [Example 264] |  | A (Fold activation ≧150%)
25 | Cc1cc(-c2ccc3c(n2)N(C(=O)Nc2cc(-c4cnc(C)s4)ccn2)[C@H]2CCN3C2)ccn1 [Example 295] |  | A (Fold activation ≧150%)
26 | Nc1ccc(-c2ccc3c(n2)N(C(=O)Nc2ccccn2)[C@H]2CCN3C2)cn1 [Example 299] |  | A (Fold activation ≧150%)
